According to paper PMC7312386, “The Effect of Substituted Benzene-Sulfonamides and Clinically Licensed Drugs on the Catalytic Activity of CynT2, a Carbonic Anhydrase Crucial for Escherichia coli Life Cycle” (International Journal of Molecular Sciences, 2020):
Where two headings read alike, the source gives them in different places.

Target: T1, CynT2 (Escherichia coli, UniProt P61517)
T1 construct: gene can; oligomer not determined (dimer or tetramer stated for bacterial beta-CAs in general)
Experiment: stopped-flow CO2 hydrase assay, phenol red
Assay type: biochemical

T1 sequence (P61517 whole entry): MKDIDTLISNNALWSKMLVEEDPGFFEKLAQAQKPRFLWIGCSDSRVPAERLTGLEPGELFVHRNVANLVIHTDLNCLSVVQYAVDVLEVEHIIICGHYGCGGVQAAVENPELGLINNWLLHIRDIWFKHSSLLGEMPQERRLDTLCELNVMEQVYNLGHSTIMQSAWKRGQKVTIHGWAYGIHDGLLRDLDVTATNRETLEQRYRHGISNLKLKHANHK

SMILES	Ki (read-out: KI *(nM) / CynT2)	Ki
CCN[C@H]1CN(CCCOC)S(=O)(=O)c2sc(S(N)(=O)=O)cc21 [BRZ, Brinzolamide]	2050 nM	
NS(=O)(=O)c1nnc(NS(=O)(=O)c2ccccc2)s1 [BZA, Benzolamide]	276 nM	
Cc1ccc(-c2cc(C(F)(F)F)nn2-c2ccc(S(N)(=O)=O)cc2)cc1 [CLX, Celecoxib]	1890 nM	
NS(=O)(=O)c1cc(Cl)c(Cl)c(S(N)(=O)=O)c1 [DCP, Dichlorophenamide]	> 10000 nM	
NS(=O)(=O)NCCNc1nonc1C(=NO)Nc1ccc(F)c(Br)c1 [EPA, Epacadostat]	2560 nM	
NC(N)=Nc1nc(CSCCC(N)=NS(N)(=O)=O)cs1 [FAM, Famotidine]	2770 nM	
NS(=O)(=O)c1cc2c(cc1Cl)NCNS2(=O)=O [HCT, Hydrochlorothiazide]	5010 nM	
NS(=O)(=O)c1ccc(S(=O)(=O)Nc2cccc3c(Cl)c[nH]c23)cc1 [IND, Indisulam]	2390 nM	
CC(=O)N=c1sc(S(N)(=O)=O)nn1C [MZA, Methazolamide]	480 nM	
O=C1NS(=O)(=O)c2ccccc21 [SAC, Saccharin]	6690 nM	
CCN1CCCC1CNC(=O)c1cc(S(N)(=O)=O)ccc1OC (centres unmarked) [SLP, Sulpiride]	97 nM	
NS(=O)(=O)c1ccc(N2CCCCS2(=O)=O)cc1 [SLT, Sulthiame]	285 nM	
CC1(C)O[C@@H]2[C@@H](CO[C@@]3(COS(N)(=O)=O)OC(C)(C)O[C@@H]23)O1 [TPM, Topiramate]	3360 nM	
Cc1onc(-c2ccccc2)c1-c1ccc(S(N)(=O)=O)cc1 [VLX, Valdecoxib]	2750 nM	
NS(=O)(=O)Cc1noc2ccccc12 [ZNS, Zonisamide]	3190 nM	
Nc1cccc(S(N)(=O)=O)c1 [compound 1, 1]	705 nM	
Nc1ccc(S(N)(=O)=O)cc1 [compound 2, 2]	790 nM	
NS(=O)(=O)c1cccc(S(N)(=O)=O)c1 [compound 3, 3]	457 nM	
Cc1ccc(S(N)(=O)=O)cc1 [compound 4, 4]	3010 nM	

SMILES	Ki (read-out: KI *(nM) / CynT2)	Ki
NCc1ccc(S(N)(=O)=O)cc1 [compound 5, 5]	2840 nM	
NCCc1ccc(S(N)(=O)=O)cc1 [compound 6, 6]		3320 nM
Nc1ccc(S(N)(=O)=O)cc1F [compound 7, 7]	> 10000 nM	
Nc1ccc(S(N)(=O)=O)cc1Cl [compound 8, 8]	> 10000 nM	
Nc1ccc(S(N)(=O)=O)cc1Br [compound 9, 9]	2710 nM	
NS(=O)(=O)c1cc(Cl)cc(Cl)c1O [compound 10, 10]	8560 nM	
Nc1cc(C(F)(F)F)c(S(N)(=O)=O)cc1S(N)(=O)=O [compound 11, 11]	6250 nM	
Nc1cc(Cl)c(S(N)(=O)=O)cc1S(N)(=O)=O [compound 12, 12]	4390 nM	
Nc1nnc(S(N)(=O)=O)s1 [compound 13, 13]	4120 nM	
Cn1nc(S(N)(=O)=O)sc1=N [compound 14, 14]	440 nM	
NS(=O)(=O)c1ccc(O)cc1 [compound 15, 15]	6440 nM	
NS(=O)(=O)c1ccc(CO)cc1 [compound 16, 16]	2340 nM	
NS(=O)(=O)c1ccc(CCO)cc1 [compound 17, 17]	502 nM	
NS(=O)(=O)c1ccc(C(=O)O)cc1 [compound 18, 18]	205 nM	
Nc1nccc(Nc2ccc(S(N)(=O)=O)cc2)n1 [compound 19, 19]	416 nM	
Nc1ccc(S(=O)(=O)Nc2nnc(S(N)(=O)=O)s2)cc1 [compound 20, 20]	726 nM	
Nc1ccc(S(=O)(=O)Nc2ccc(S(N)(=O)=O)cc2)cc1 [compound 22, 22]	93 nM	
Nc1ccc(S(=O)(=O)NCc2ccc(S(N)(=O)=O)cc2)cc1 [compound 23, 23]	322 nM	
Nc1ccc(S(=O)(=O)NCCc2ccc(S(N)(=O)=O)cc2)cc1 [compound 24, 24]	82 nM	
